Assays:
[1] = system: strychnine-induced seizures; assay: Strychnine-induced seizure model; assay type: in vivo, mice; conditions: for survival rate of strychnine-poisoned animals: dose not given
Text: (§1) The anticonvulsant effects of the examined substances were studied in male white mice weighing 18–22 g, divided into the following groups: control (including the strychnine and nicotine groups), carbamazepine group, Convulex group, and experimental groups (one for each tested substance). Simple randomization (“heads or tails” coin toss) was used to assign animals to groups. Each group contained 10 animals. Healthy animals were included in the experiments after a 14-day quarantine period. No animals were excluded from the study. Convulsant agents were administered subcutaneously at doses of 10.0 mg/kg for nicotine (Sigma–Aldrich, Saint Louis, MO, USA) and 1.5 mg/kg for strychnine (Sigma–Aldrich, Saint Louis, MO, USA), 60 min after the oral administration of the test substances at doses ranging from 0.1 to 10 mg/kg. The onset time, duration of tremors and seizures, and survival rate of the animals were recorded. Carbamazepine (Darnitsa, Kiev, Ukraine) at doses of 5.0–10.0 mg/kg and Convulex (valproate) (Gerot Pharmazeutika GmbH, Vienna, Austria) at doses of 75.0–100.0 mg/kg (based on the therapeutic anticonvulsant dose) were used as reference drugs.
(§2) Data were presented as mean ± SD for different groups. Statistical analysis was performed using OriginPro 9.0 (MicroCal Software, Northampton, MA, USA), with p < 0.05 considered statistically significant.

[2] = system: tremorogenic and convulsive actions of nicotine; assay: Nicotine-induced tremor and seizure model; assay type: in vivo, mice; conditions: for responders at 1 mg/kg: po
Text: as §1, §2

[3] = parameters: method as in PMID 36677539; conditions: per os; cited from earlier work
[4] = Mus musculus, oral dose 1.0 mg/kg 60 min before strychnine 1.5 mg/kg s.c., N = 10, read-out: Survival Rate
[5] = oral dose 1.0 mg/kg 60 min before strychnine 1.5 mg/kg s.c., mean ± SD, N = 10
[6] = Mus musculus, read-out: Survival Rate
[7] = oral dose 1.0 mg/kg 60 min before nicotine 10 mg/kg s.c., mean ± SD, N = 10
[8] = dose 5.0 mg/kg, strychnine 1.5 mg/kg s.c.
[9] = dose 10.0 mg/kg, strychnine 1.5 mg/kg s.c.
[10] = doses of 5–10 mg/kg, versus control
[11] = Mus musculus, sc, read-out: Survival Rate
[12] = dose 5.0 mg/kg, nicotine 10 mg/kg s.c.
[13] = dose 10.0 mg/kg, nicotine 10 mg/kg s.c.

Compound | responders at 1 mg/kg [1, 4] [%] | Duration of Tremor and Seizures [1, 5] [min] | Latency to Tremor and Seizure Onset [1, 5] [min] | responders at 1 mg/kg [2, 6] [%] | Duration of Seizures [2, 7] [min] | Latency to Seizure Onset [2, 7] [min] | LD50 [3] | survival rate of strychnine-poisoned animals [1] | also measured
COc1cc2c(cc1OC)C(c1ccc(Cl)cc1)NCC2 (stereo not shown) [Compound 12, 1-(4′-Chlorophenyl)-6,7-dimethoxy-1,2,3,4-tetrahydroisoquinoline] | 20 | 0.23 ± 0.6 | 18.5 ± 1.8 | 70 | 7.0 ± 0.4 | 2.1 ± 0.09 | 730.4 (598.2 ± 883.7) mg/kg |  | 
NC(=O)N1c2ccccc2C=Cc2ccccc21 [Carbamazepine, reference compound] |  |  |  |  |  |  |  |  | responders at 5 mg/kg ([1]; Mus musculus, sc, dose 5.0 mg/kg, strychnine 1.5 mg/kg s.c., read-out: Survival Rate): 40%; responders at 10 mg/kg ([1]; Mus musculus, sc, dose 10.0 mg/kg, strychnine 1.5 mg/kg s.c., read-out: Survival Rate): 50%; Duration of Tremor and Seizures [1, 8]: 0.43 ± 0.5 min; Latency to Tremor and Seizure Onset [1, 8]: 14.6 ± 1.4 min; Duration of Tremor and Seizures [1, 9]: 0.38 ± 0.8 min; Latency to Tremor and Seizure Onset [1, 9]: 12.6 ± 1.7 min; increase of latency time for seizure onset [1, 10]: 29–49%; reduction of the duration of seizures [1, 10]: 21–37%; increase of the survival rate of the animals ([1]; reference drugs, versus control (100% died)): 40–50%; responders at 5 mg/kg [2, 11]: 60%; responders at 10 mg/kg [2, 11]: 80%; Duration of Seizures [2, 12]: 15.2 ± 0.9 min; Latency to Seizure Onset [2, 12]: 1.57 ± 0.07 min; Duration of Seizures [2, 13]: 4.7 ± 0.6 min; Latency to Seizure Onset [2, 13]: 1.5 ± 0.02 min; survival rate ([2]; reference drugs): 60–80%
COc1cc2c(cc1OC)C(c1cccc(N)c1)NCC2 (stereo not shown) [Compound 33, 1-(3′-Aminophenyl)-6,7-dimethoxy-1,2,3,4-tetrahydroisoquinoline] | 50 | 0.42 ± 0.8 | 16.7 ± 1.0 | 80 | 17.0 ± 0.6 | 2.2 ± 0.04 | 732.0 (598.2 ± 885.4) mg/kg |  | 
COc1cc2c(cc1OC)C(c1ccc(Br)cc1)NCC2 (stereo not shown) [Compound 15, 1-(4′-Bromophenyl)-6,7-dimethoxy-1,2,3,4-tetrahydroisoquinoline] | 40 | 0.50 ± 0.5 | 12.5 ± 1.2 | 70 | 8.3 ± 0.3 | 2.2 ± 0.07 | 422.0 (399.4 ± 445.3) mg/kg | no more than 40% | 
COc1cc2c(cc1OC)C(c1cc(OC)c(OC)cc1[N+](=O)[O-])NCC2 (stereo not shown) [Compound 26, 1-(4′,5′-Dimethoxy-2′-nitrophenyl)-6,7-dimethoxy-1,2,3,4-tetrahydroisoquinoline] | 40 | 0.51 ± 0.8 | 16.7 ± 1.2 | 80 | 10.8 ± 0.4 | 2.6 ± 0.03 | 524.5 (501.3 ± 547.7) mg/kg |  | 
COc1cc2c(cc1OC)C(c1ccccc1OC)NCC2 (stereo not shown) [Compound 6, 1-(2′-Methoxyphenyl)-6,7-dimethoxy-1,2,3,4-tetrahydroisoquinoline] | 30 | 0.50 ± 0.4 | 15.7 ± 1.7 | 100 | 10.5 ± 0.5 | 2.4 ± 0.03 | 286.7 (256.9 ± 318.7) mg/kg | no more than 40% | survival rate of the animals increased to ([2]; at low doses (0.1–5 mg/kg)): 90–100%; activity against tremorogenic and convulsive actions of nicotine versus reference drugs (in words) ([2]; doses of 0.1–5 mg/kg): comparable activity to the reference drugs; survival rate in nicotine-poisoned animals ([2]; from a dose of 0.1 mg/kg): 90%
COc1cc2c(cc1OC)C(c1ccccc1Br)NCC2 (stereo not shown) [Compound 13, 1-(2′-Bromophenyl)-6,7-dimethoxy-1,2,3,4-tetrahydroisoquinoline] | 40 | 0.31 ± 0.7 | 10.5 ± 1.3 | 50 | 5.0 ± 0.7 | 2.2 ± 0.03 | 315.8 (281.2 ± 345.2) mg/kg | no more than 40% | 

From PMC12472494, “Anticonvulsant Potential of 1-Aryl-6,7-dimethoxy-1,2,3,4-tetrahydroisoquinolines: Insights from Strychnine and Nicotine Models in In Vivo and In Silico Studies” (Pharmaceuticals, 2025)
